Test results: patent publication US20050084468A1, “Antimicrobial cleaning composition” (Colgate-Palmolive Company, priority 2003, published 2005)

Key:
Assay type in all cases: cell-based
[1] = test system: wild germs from hand's volunteers (mainly Staphylococcus epidermitis); experiment: Lasting antibacterial protection, PHMB-Mucin in surfactant solutions; conditions: surfactant solution alone (NO PHMB-Mucin), 2.5% AI in water
Description: (§1) Ceramic tiles are treated with 200 μl of the solutions to test; untreated tiles are used as reference. After overnight drying of the treatment, tiles are rinsed with 2×10 ml deionized water and let dry for 1 hour. Tiles are then inoculated in the horizontal position for 5 hours with 200 μl of a suspension of wild germs from hand's volunteers (mainly Staphylococcus epidermitis). After rinsing of the surface with 2×10 ml sterile tap water to remove the germs source, the contamination of the surface is determined by direct imprint with Tryptic Soy Agar plates (a nutritive gelified support). Colony forming units (=cfu=microorganisms) are counted after 48 hours incubation at RT.
PHMB-Mucin in Surfactant Solutions
Test methodology is described under example II. We considered nonionic surfactants (Neodols), anionics (SLS, PS), and amphoteric (CAPB) at 2.5% Al in water. The mixture is Neodol 91-8 1.25%, Neodol 91-5 0.25%, CAPB 0.45%, PS 0.5%.

[2] = test system: wild germs from hand's volunteers (mainly Staphylococcus epidermitis); experiment: Lasting antibacterial protection of the surface (treated ceramic tiles, imprint cfu count); conditions: tiles rinsed 2×10 ml deionized water; inoculated 5 hours; counted after 48 hours at RT
Description: as §1, with “Measure” for “Ceramic tiles are treated with 200 μl”, “Lasting Antibacterial Protection of the Surface […]” for “solutions to test; untreated tiles are used as reference.”, “[…]).” for “epidermitis).”

[3] = test system: wild germs from hand's volunteers (mainly Staphylococcus epidermitis); experiment: Lasting antibacterial protection, stronger rinsing with water
Description: as §1
Stronger Rinsing with Water:
Methodology is the same as described under example II but rinsing is operated either with 2×10 ml or 5×10 ml water or with a tap water shower head during 30 sec.

[4] = rinsing tap water shower head 30 sec.

CCCCCCCCCCCCOS(=O)(=O)[O-].[Na+] [SLS, sodium lauryl sulfate]
cfu/tile - average on 3 replicates ([1]; series of PHMB 0.06%-Mucin 0.03%): 277 ± 34 cfu/tile | cfu/tile - average on 3 replicates ([1]; series of PHMB 0.09%-Mucin 0.05%): 77 ± 25 cfu/tile

mucin [Mucin 0.1%]
Cfu/ceramic tile Average on 3 replicates [2]: 82 ± 15 Cfu/ceramic tile | cfu/ceramic tile average on 3 replicates ([3]; rinsing 2 × 10 ml water): 50 ± 19 cfu/ceramic tile | cfu/ceramic tile average on 3 replicates ([3]; rinsing 5 × 10 ml water): 129 ± 36 cfu/ceramic tile | cfu/ceramic tile average on 3 replicates [3, 4]: 149 ± 5 cfu/ceramic tile

mucin [Mucin 0.03%]
Cfu/ceramic tile Average on 3 replicates [2]: 110 ± 18 Cfu/ceramic tile | cfu/ceramic tile average on 3 replicates ([3]; rinsing 2 × 10 ml water): 37 ± 3 cfu/ceramic tile | cfu/ceramic tile average on 3 replicates ([3]; rinsing 5 × 10 ml water): 118 ± 43 cfu/ceramic tile | cfu/ceramic tile average on 3 replicates [3, 4]: 145 ± 8 cfu/ceramic tile

mucin [Mucin 0.05%]
Cfu/ceramic tile Average on 3 replicates [2]: 68 ± 12 Cfu/ceramic tile | cfu/ceramic tile average on 3 replicates ([3]; rinsing 2 × 10 ml water): 26 ± 7 cfu/ceramic tile | cfu/ceramic tile average on 3 replicates ([3]; rinsing 5 × 10 ml water): 98 ± 23 cfu/ceramic tile | cfu/ceramic tile average on 3 replicates [3, 4]: 72 ± 17 cfu/ceramic tile
